Drawing on US20210317099A1, “SAFER, POTENT, AND FAST ACTING ANTIMICROBIAL AGENTS” (Purdue Research Foundation, priority 2020, published 2021), this text covers MIC for 31 compounds.

Structures are written as SMILES. In brackets after ≈: the same amount, converted by molar mass. Where only a bound is given, the exact number is not on record here.

One test has as its system Staphylococcus aureus NRS384 (MRSA USA300). Briefly: Initial MIC screening, broth microdilution (CLSI). The test is classed as cell-based. To be noted: Staphylococcus aureus NRS384 (MRSA USA300), broth microdilution, visual reading. The method, then: Method: The minimum inhibitory concentration (MIC) of the compounds 1-187, and control antibiotics (vancomycin, linezolid) was determined using the broth microdilution method against methicillin-resistant Staphylococcus aureus (MRSA) USA 300 using the broth microdilution method according to the guidelines outlined by the Clinical and Laboratory Standards Institute (CLSI). MRSA strain was cultivated on Tryptic soy agar plates and let grow for 24 hours at 37° C. under aerobic conditions. Bacterial suspension equivalent to 0.5 McFarland standard was prepared and diluted in cation-adjusted Mueller-Hinton broth (CAMHB) to attain a bacterial concentration of 5×10^5 CFU/ml and seeded in 96-well plates. The desired concentrations of each drug and compound were added in the first row of the 96-well plates and serially diluted to achieve a concentration gradient from 64 μg/ml to 0.5 μg/mL.
(In broth dilution the organism is exposed to a series of concentrations in liquid medium.)
For `C=C1C(=O)O[C@H](c2ccc(OC)cc2)[C@@H]1c1ccc(OC)cc1` [Compound 68], the MIC (in general, the smallest concentration in the dilution series that meets the test's criterion for growth inhibition) stood at 64 µg/mL (≈ 206 µM). The same measure, in the same setting: the figure for `C=C1C(=O)O[C@H](c2ccccc2)[C@@H]1c1ccc2ccccc2c1` [Compound 109] is ≤1 µg/mL; for `C=C1C(=O)O[C@H](c2ccccc2)[C@@H]1c1ccc2ccccc2c1` [Compound 152] it is 8 µg/mL (≈ 26.6 µM).

The same test, now with this note: Staphylococcus aureus, Staphylococcus aureus NRS384 (MRSA USA300), broth microdilution, visual reading; read-out: MIC.
On to `COc1ccc([C@@H]2C(CN(C)C)C(=O)O[C@@H]2c2ccccc2)cc1` (stereo partly shown) [Compound 17], for which the MIC was found to be 64 µg/mL (≈ 197 µM). For the compound `C=C1C(=O)O[C@H](c2ccc(OC)cc2)[C@@H]1c1ccc(C(F)(F)F)cc1` [Compound 79], the MIC worked out at 8 µg/mL (≈ 23 µM).

As to `C=C1C(=O)O[C@H](CCO[Si](c2ccccc2)(c2ccccc2)C(C)(C)C)[C@@H]1c1ccc(C)cc1` [Compound 52], the MIC was > 128 µg/mL.

As to `COc1ccc([C@@H]2C(CN3CCCCC3)C(=O)O[C@@H]2c2ccc(C)cc2)cc1` (stereo partly shown) [Compound 35], the MIC was determined as 64 µg/mL (≈ 169 µM). Take `C=C1C(=O)O[C@H](c2ccc3ccccc3n2)[C@@H]1c1ccccc1` [Compound 116]: the MIC is > 128 µg/mL. Turning to `COc1ccc([C@@H]2C(CN(C)C)C(=O)O[C@@H]2c2ccc(C)cc2)cc1` (stereo partly shown) [Compound 86], the MIC worked out at 128 µg/mL (≈ 377 µM). Still for that read-out and setting: the result for `CN(C)CC1C(=O)O[C@H](c2ccccc2)[C@@H]1c1ccc(C#N)cc1` (stereo partly shown) [Compound 16] reads > 128 µg/mL. In the case of `C=C1C(=O)O[C@H](c2ccc(C)cc2)[C@@H]1c1ccc(C#N)cc1` [Compound 65], the MIC was 4 µg/mL (≈ 13.8 µM). For the compound `C/C=C/[C@H]1OC(=O)C(CN2CCCCC2)[C@H]1c1ccc(Br)cc1` (stereo partly shown) [Compound 29], the MIC is 16 µg/mL (≈ 42.3 µM). Same read-out and setting: the figure for `O=C1O[C@H](c2ccc3ccccc3c2)CC1CN1CCCCC1` (stereo partly shown) [Compound 31] is > 128 µg/mL; for `C=C1C(=O)O[C@H](c2ccccc2OC)[C@@H]1c1ccc(C#N)cc1` [Compound 42] it is 32 µg/mL (≈ 105 µM); for `O=C1O[C@H](c2cccc3ccccc23)[C@H](c2ccccc2)C1CN1CCCCC1` (stereo partly shown) [Compound 162] it is 8 µg/mL (≈ 20.8 µM). For `C=CCNC[C@@H]1C(=O)O[C@H](c2ccccc2)[C@@H]1c1ccccc1` [Compound 63], the MIC is 128 µg/mL (≈ 416 µM). Still for that read-out and setting: the result for `C=C1C(=O)O[C@H](c2cc(OC)c(OC)c(OC)c2)[C@@H]1c1ccc(C#N)cc1` [Compound 54] reads 128 µg/mL (≈ 350 µM); that for `C=C1C(=O)O[C@H](c2ccnc3ccccc23)[C@@H]1c1ccc2ccccc2c1` [Compound 111], 2 µg/mL (≈ 5.69 µM); that for `C=C(C(=O)OC)C(c1ccccc1)C(O)c1cccc2ccccc12` (stereo not shown) [Compound 142], 4 µg/mL (≈ 12 µM). `C=C1C(=O)O[C@H](c2ccc3ccccc3c2)[C@@H]1c1cccc2ccccc12` [Compound 157]: the MIC was > 64 µg/mL. The same measure, in the same setting: the figure for `CCCCC[C@@H]1CC(CN2CCCCC2)C(=O)O1` (stereo partly shown) [Compound 26] is > 128 µg/mL. On to `CCC[C@@H]1[C@H](CN2CCCCC2)C(=O)O[C@H]1c1ccc(SC)cc1` [Compound 45], for which the MIC was > 128 µg/mL. Regarding `C=C1C(=O)O[C@H](c2ccc(C#N)cc2)[C@@H]1c1ccc(C)cc1` [Compound 37], the MIC was found to be 16 µg/mL (≈ 55.3 µM). On to `C=C1C(=O)O[C@H](c2ccccc2)[C@@H]1c1ccc(C#N)cc1` [Compound 69], for which the MIC was > 128 µg/mL.

Regarding `C=C1C(=O)O[C@H](CCCCCCCC)[C@@H]1/C=C/c1ccccc1` [Compound 51], the minimal inhibitory concentration (MIC) was > 128 µg/mL. Turning to `C=C1C(=O)O[C@H](c2ccccc2)[C@@H]1c1ccccc1` [Compound 103], the MIC was found to be 32 µg/mL (≈ 128 µM). On to `C=C(C(=O)OC)C(c1cccc2ccccc12)C(O)c1ccc2ccccc2c1` (stereo not shown) [Compound 146], for which the MIC was > 64 µg/mL.

Consider `C=C1C(=O)O[C@H](c2ccc(OC)cc2)[C@H]1C` [Compound 118], for which the MIC was > 128 µg/mL.

As for `O=C1OC[C@H](c2ccco2)C1CN1CCCCC1` (stereo partly shown) [Compound 76], the MIC was > 128 µg/mL. The same measure, in the same setting: the figure for `C=C1C(=O)O[C@H](c2cccc(OC)c2)[C@@H]1c1ccccc1Br` [Compound 55] is 8 µg/mL (≈ 22.3 µM); for `C=C1C(=O)O[C@H](c2ccccc2O)[C@@H]1c1cccc(C#N)c1` [Compound 50] it is > 128 µg/mL.
